Measurements reported in ChEMBL document CHEMBL5223109, “The discovery of BMS-737 as a potent, CYP17 lyase-selective inhibitor for the treatment of castration-resistant prostate cancer” (Bioorg Med Chem Lett, 2022).

How the values were obtained:
[1] = Metabolic stability in human liver microsome assessed as half-life; format: ADME; conditions: liver microsomes
[2] = Half-life in cynomolgus monkey at 1 mg/kg, iv; format: ADME, organism-based, Macaca fascicularis; conditions: in vivo
Cytochrome P450 2C9 = Cytochrome P450 2C9 (Homo sapiens, UniProt P11712); test: Inhibition of recombinant human CYP2C9; format: ADME
[3] = Inhibition of cynomolgus monkey CYP11B1; format: ADME, Macaca fascicularis
[4] = Metabolic stability in dog liver microsome assessed as half-life; format: ADME, Canis lupus familiaris; conditions: liver microsomes
[5] = target: T1, Steroid 17-alpha-hydroxylase/17,20 lyase (Macaca fascicularis, UniProt Q2XVA1); test: In vivo inhibition of CYP17A1 in cynomolgus monkey assessed as increase in hydroxyprogesterone level in blood at 1 mg/kg, po measured at 4 hrs; format: functional, organism-based
T1 sequence (Q2XVA1 whole entry): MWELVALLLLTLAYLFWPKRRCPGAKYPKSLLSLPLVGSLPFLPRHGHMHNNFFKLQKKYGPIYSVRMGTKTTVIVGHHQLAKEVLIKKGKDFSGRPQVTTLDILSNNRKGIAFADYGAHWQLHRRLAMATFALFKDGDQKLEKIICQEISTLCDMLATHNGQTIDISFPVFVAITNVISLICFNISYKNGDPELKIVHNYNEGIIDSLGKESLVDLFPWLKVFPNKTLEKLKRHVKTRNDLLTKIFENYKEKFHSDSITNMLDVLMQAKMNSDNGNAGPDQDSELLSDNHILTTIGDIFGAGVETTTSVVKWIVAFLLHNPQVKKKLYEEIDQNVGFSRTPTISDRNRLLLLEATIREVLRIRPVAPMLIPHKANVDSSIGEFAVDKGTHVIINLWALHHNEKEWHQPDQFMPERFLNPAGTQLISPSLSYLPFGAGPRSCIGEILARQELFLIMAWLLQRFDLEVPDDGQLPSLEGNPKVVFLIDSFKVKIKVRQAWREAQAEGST

[6] = target: T1, Steroid 17-alpha-hydroxylase/17,20 lyase; test: In vivo inhibition of CYP17A1 in cynomolgus monkey assessed as fold increase in hydroxyprogesterone level in blood at 1 mg/kg, po measured upto 24 hrs; format: functional, organism-based
[7] = Clearance in cynomolgus monkey at 1 mg/kg, iv; format: ADME, organism-based, Macaca fascicularis; conditions: in vivo
[8] = Metabolic stability in mouse liver microsomes assessed as parent compound remaining; format: ADME, Microsome
[9] = target: T2, Nuclear receptor subfamily 1 group I member 2 (Homo sapiens, UniProt O75469); test: Inhibition of PXR (unknown origin)
T2 sequence (O75469 whole entry): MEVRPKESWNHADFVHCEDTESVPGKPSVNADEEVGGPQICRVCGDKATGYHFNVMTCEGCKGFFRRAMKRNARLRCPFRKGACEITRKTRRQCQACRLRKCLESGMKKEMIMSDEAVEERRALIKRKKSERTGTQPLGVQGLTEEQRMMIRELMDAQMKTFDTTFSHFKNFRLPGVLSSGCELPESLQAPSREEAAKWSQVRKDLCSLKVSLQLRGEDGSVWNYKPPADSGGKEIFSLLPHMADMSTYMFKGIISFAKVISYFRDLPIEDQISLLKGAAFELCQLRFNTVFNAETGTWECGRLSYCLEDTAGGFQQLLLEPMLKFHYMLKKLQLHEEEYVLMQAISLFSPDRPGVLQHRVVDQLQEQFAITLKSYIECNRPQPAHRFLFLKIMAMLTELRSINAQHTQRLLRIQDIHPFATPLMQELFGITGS

[10] = target: T3, Steroid 17-alpha-hydroxylase/17,20 lyase (Homo sapiens, UniProt P05093); test: Selectivity ratio for inhibition of human CYP17A1 hydroxylase activity to inhibition of human CYP17A1 lyase activity; format: ADME
T3 sequence (P05093 whole entry): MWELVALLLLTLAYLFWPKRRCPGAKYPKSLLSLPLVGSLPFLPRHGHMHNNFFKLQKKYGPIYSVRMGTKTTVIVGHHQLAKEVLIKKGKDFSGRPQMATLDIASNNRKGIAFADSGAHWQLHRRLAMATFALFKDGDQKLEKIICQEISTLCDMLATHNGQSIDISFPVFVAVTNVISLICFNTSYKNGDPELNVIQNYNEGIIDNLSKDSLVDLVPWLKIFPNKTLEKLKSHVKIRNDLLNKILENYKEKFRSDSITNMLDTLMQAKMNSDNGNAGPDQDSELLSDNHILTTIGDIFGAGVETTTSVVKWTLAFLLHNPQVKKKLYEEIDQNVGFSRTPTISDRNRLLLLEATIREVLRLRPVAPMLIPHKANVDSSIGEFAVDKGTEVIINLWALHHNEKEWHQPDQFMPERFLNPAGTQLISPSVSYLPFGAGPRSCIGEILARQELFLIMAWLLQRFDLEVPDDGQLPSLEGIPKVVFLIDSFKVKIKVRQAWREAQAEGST

Steroid 21-hydroxylase = target: T4, Steroid 21-hydroxylase (Homo sapiens, UniProt P08686); test: Inhibition of human CYP21A2; format: ADME
T4 sequence (P08686 whole entry): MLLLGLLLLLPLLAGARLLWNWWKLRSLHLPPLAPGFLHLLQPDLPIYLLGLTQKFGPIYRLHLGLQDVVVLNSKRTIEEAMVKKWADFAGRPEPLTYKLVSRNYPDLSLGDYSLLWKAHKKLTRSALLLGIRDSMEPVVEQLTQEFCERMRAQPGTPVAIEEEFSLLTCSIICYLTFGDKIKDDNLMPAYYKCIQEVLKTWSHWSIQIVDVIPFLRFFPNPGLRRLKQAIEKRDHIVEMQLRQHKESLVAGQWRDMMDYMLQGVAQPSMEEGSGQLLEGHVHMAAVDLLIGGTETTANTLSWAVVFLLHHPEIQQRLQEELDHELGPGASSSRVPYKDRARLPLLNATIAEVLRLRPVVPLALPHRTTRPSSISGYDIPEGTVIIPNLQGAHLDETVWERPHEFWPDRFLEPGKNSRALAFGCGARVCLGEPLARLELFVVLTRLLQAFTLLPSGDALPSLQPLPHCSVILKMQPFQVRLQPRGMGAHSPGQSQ

Cytochrome P450 2C19 = Cytochrome P450 2C19 (Homo sapiens, UniProt P33261); test: Inhibition of recombinant human CYP2C19; format: ADME
[11] = Metabolic stability in human liver microsomes assessed as parent compound remaining relative to control; format: ADME, Microsome
[12] = target: T3, Steroid 17-alpha-hydroxylase/17,20 lyase; test: Inhibition of human CYP17A1; format: ADME
[13] = target: T1, Steroid 17-alpha-hydroxylase/17,20 lyase; test: Inhibition of cynomolgus monkey CYP17A1 hydroxylase activity; format: ADME
[14] = Tmax in cynomolgus monkey at 1 mg/kg, po; format: ADME, organism-based, Macaca fascicularis; conditions: in vivo
[15] = target: T1, Steroid 17-alpha-hydroxylase/17,20 lyase; test: Selectivity ratio of IC50 for inhibition of cynomolgus monkey CYP17A1 hydroxylase activity to IC50 for inhibition of cynomolgus monkey CYP17A1 lyase activity; format: ADME
[16] = target: T1, Steroid 17-alpha-hydroxylase/17,20 lyase; test: Inhibition of cynomolgus monkey adrenal gland CYP17A1; format: ADME, tissue-based
[17] = Metabolic stability in rat liver microsome assessed as half-life; format: ADME; conditions: liver microsomes
[18] = Metabolic stability in dog liver microsomes assessed as parent compound remaining relative to control; format: ADME, Canis lupus familiaris, Microsome

Chain of Cytochrome P450 2C9 (P11712 whole entry): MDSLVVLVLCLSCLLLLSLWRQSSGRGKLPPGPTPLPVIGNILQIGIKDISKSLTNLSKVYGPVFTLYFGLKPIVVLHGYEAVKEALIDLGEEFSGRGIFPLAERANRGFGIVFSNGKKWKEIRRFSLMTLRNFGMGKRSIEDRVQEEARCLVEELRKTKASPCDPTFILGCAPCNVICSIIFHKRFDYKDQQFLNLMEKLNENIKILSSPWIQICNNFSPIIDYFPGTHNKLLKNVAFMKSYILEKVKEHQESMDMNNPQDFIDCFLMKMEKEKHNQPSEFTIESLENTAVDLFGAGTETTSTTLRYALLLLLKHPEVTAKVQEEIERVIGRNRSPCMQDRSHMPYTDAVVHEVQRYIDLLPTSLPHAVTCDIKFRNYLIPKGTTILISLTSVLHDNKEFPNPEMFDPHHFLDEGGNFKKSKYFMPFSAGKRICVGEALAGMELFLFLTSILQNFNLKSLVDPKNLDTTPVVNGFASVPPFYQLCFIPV
Chain of Cytochrome P450 2C19 (P33261 whole entry): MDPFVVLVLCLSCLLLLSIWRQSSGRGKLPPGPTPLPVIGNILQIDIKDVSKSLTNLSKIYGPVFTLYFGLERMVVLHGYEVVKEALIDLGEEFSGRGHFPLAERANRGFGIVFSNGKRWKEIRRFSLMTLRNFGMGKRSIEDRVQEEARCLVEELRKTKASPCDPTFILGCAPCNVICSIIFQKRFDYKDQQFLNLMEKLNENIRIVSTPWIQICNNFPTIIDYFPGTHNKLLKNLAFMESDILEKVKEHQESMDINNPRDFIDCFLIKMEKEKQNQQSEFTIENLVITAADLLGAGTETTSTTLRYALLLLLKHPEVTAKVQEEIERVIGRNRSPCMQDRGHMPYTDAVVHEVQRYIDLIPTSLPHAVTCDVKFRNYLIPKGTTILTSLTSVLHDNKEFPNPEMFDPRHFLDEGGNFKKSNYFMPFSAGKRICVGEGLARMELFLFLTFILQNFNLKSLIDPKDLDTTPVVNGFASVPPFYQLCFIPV

- half-life [1]: > 2 h
- half-life [2]: 16 h
- IC50 (Cytochrome P450 2C9): > 40 µM
- IC50 [3]: > 10 µM
- half-life [4]: 0.767 h
- Activity [5]: 7.7 ng/dL
- fold change (FC) [6]: 14
- clearance [7]: 0.168 L/h/kg
- Stability [8]: 85%
- IC50 [9]: > 50 µM
- IC50 (Steroid 21-hydroxylase): > 10 µM
- IC50 (Cytochrome P450 2C19): > 40 µM
- Stability [11]: 100%
- IC50 [12]: 0.016 µM
- IC50 [13]: 0.03 µM
- Tmax [14]: 1 h
- IC50 [16]: 0.002 µM
- half-life [17]: 1.2 h
- Stability [18]: 86%
Compound: Nc1ncncc1-c1ccnc2c1cnn2-c1ccc(F)cc1
- Ratio [10]: 11
- Ratio IC50 [15]: 5
